Our source for the GI50 and TGI values is PubChem BioAssay (NCI).

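Following 48 hours of exposure in 96-well plates, responses at five concentrations were used to interpolate endpoints linearly. The concentration for 50% growth inhibition is given as GI50. TGI denotes the concentration required for complete inhibition of growth.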 A value given as a limit tells only on which side of the number the result lay.

Some test systems named below: 786-0 renal; BT-549 breast; IGROV1 ovarian; NCI-H522 lung; NCI-H460 lung; NCI-H23 lung; SK-MEL-28 melanoma; LOX IMVI melanoma; ACHN renal; SF-268 CNS.
What all share (experiment): NCI tumour cell line growth inhibition, 48 h

Turning to `O=C1NC(O)C(c2c[nH]c3ccccc23)=C1c1c[nH]c2ccccc12` (stereo not given), the GI50 with 786-0 renal, in the assay with BT-549 breast, in the assay on IGROV1 ovarian, in the assay on NCI-H522 lung, in the assay on NCI-H460 lung and in the assay on NCI-H23 lung was above 25 µM throughout. Besides, the GI50 in the assay on SK-MEL-28 melanoma is above 25 µM; in the assay on LOX IMVI melanoma, above 22.5 µM; in the assay on ACHN renal it was above 25 µM; in the assay on SF-268 CNS it was above 25 µM. The TGI in the assay with 786-0 renal, with BT-549 breast, in the assay with IGROV1 ovarian, in the assay on NCI-H522 lung, in the assay on NCI-H460 lung and in the assay on NCI-H23 lung was above 25 µM throughout. Further, the TGI in the assay with SK-MEL-28 melanoma, with LOX IMVI melanoma, in the assay on ACHN renal and in the assay with SF-268 CNS was above 25 µM in each case.

As to `O=C(CNc1ccc2c(c1)C(=O)c1ccccc1C2=O)Nc1ccc2c(c1)C(=O)c1ccccc1C2=O`, the GI50 is 0.451 µM in the assay with 786-0 renal; 0.641 µM in the assay with BT-549 breast; 0.681 µM with IGROV1 ovarian; 0.153 µM in the assay on NCI-H522 lung; 1.28 µM in the assay with NCI-H460 lung; 0.304 µM in the assay on NCI-H23 lung. The GI50 in the assay with SK-MEL-28 melanoma was 1.68 µM; in the assay with LOX IMVI melanoma, 0.142 µM; with ACHN renal, 1.58 µM; with SF-268 CNS, 0.575 µM. Besides, the TGI with 786-0 renal worked out at 1.69 µM; in the assay on BT-549 breast, 1.99 µM; in the assay with IGROV1 ovarian, 2.7 µM; in the assay with NCI-H522 lung it was 0.318 µM; in the assay with NCI-H460 lung, 2.88 µM; in the assay on NCI-H23 lung, 1.09 µM. In addition, the TGI was 3.13 µM in the assay on SK-MEL-28 melanoma, 0.317 µM in the assay on LOX IMVI melanoma, 3.01 µM in the assay on ACHN renal and 1.71 µM in the assay on SF-268 CNS.

On to `COc1ccc(/C=C/C(=O)c2ccc(SC)cc2)cc1OC`, for which the GI50 with 786-0 renal was 12.5 µM; with BT-549 breast, 2.86 µM; in the assay with IGROV1 ovarian, 4.73 µM; with NCI-H522 lung, 5 µM; in the assay on NCI-H460 lung it was 70.6 µM; in the assay on NCI-H23 lung it was 2.82 µM. The GI50 is 18.2 µM with SK-MEL-28 melanoma, 4.12 µM in the assay with LOX IMVI melanoma, 11.7 µM in the assay with ACHN renal and 22.3 µM with SF-268 CNS. The TGI with 786-0 renal was 26.6 µM; in the assay on BT-549 breast it was 6.66 µM; with IGROV1 ovarian it was 25.2 µM; with NCI-H522 lung, 27.4 µM; in the assay with NCI-H460 lung, above 100 µM; with NCI-H23 lung, 10.4 µM. Besides, the TGI in the assay with SK-MEL-28 melanoma was 39.8 µM; in the assay with LOX IMVI melanoma, 15.5 µM; in the assay on ACHN renal, 27.6 µM; in the assay on SF-268 CNS, 63.8 µM.

Regarding `O=c1nc2n(-c3ccc(Cl)cc3)c3ccc([N+](=O)[O-])cc3cc-2c(=O)[nH]1`, the GI50 with 786-0 renal is 17.9 µM; in the assay with BT-549 breast, 13.6 µM; with NCI-H522 lung, 22.2 µM; in the assay on NCI-H460 lung it was 23.1 µM; in the assay with NCI-H23 lung, 17.7 µM; in the assay on SK-MEL-28 melanoma it was 24.9 µM. Further, the GI50 was 4.87 µM with LOX IMVI melanoma, 57.4 µM with ACHN renal and 16.5 µM in the assay with SF-268 CNS. Besides, the TGI was 37.1 µM in the assay with 786-0 renal; 46.2 µM with BT-549 breast; 57.2 µM in the assay with NCI-H522 lung; above 100 µM with NCI-H460 lung; 34 µM in the assay with NCI-H23 lung; 61.6 µM with SK-MEL-28 melanoma. Besides, the TGI in the assay with LOX IMVI melanoma is 21.7 µM; in the assay with ACHN renal it was above 100 µM; in the assay on SF-268 CNS, 64.5 µM.

`CCCc1cc2c(=O)c(C(=O)OC)c[nH]c2cc1N(CC)CC`: the GI50 is 19.6 µM with 786-0 renal; 39.8 µM in the assay on BT-549 breast; above 100 µM in the assay with IGROV1 ovarian; 38.5 µM in the assay with NCI-H522 lung; 31.6 µM with NCI-H460 lung; 44.5 µM in the assay with NCI-H23 lung. Further, the GI50 with SK-MEL-28 melanoma was 81.7 µM; in the assay on LOX IMVI melanoma, 25.8 µM; with ACHN renal, 17.6 µM; in the assay on SF-268 CNS, 28.6 µM. The TGI in the assay with 786-0 renal was 39.8 µM; in the assay with BT-549 breast, above 100 µM; with IGROV1 ovarian, above 100 µM; in the assay with NCI-H522 lung it was above 100 µM; in the assay on NCI-H460 lung it was above 100 µM; in the assay with NCI-H23 lung it was above 100 µM. The TGI with SK-MEL-28 melanoma was above 100 µM; with LOX IMVI melanoma it was 77.9 µM; in the assay on ACHN renal, 60.9 µM; in the assay on SF-268 CNS, 87.6 µM.

Regarding `c1ccc2[nH]c(-c3ccc(NN=Nc4ccncc4)cc3)nc2c1`, the GI50 in the assay on 786-0 renal is 99.9 µM; in the assay on BT-549 breast it was 4.39 µM; with IGROV1 ovarian, above 100 µM; in the assay on NCI-H522 lung, 77.6 µM; in the assay with NCI-H460 lung it was 2.46 µM; in the assay with SK-MEL-28 melanoma, 16.6 µM. Besides, the GI50 in the assay with LOX IMVI melanoma is 6.59 µM; in the assay on ACHN renal it was 31.2 µM; in the assay with SF-268 CNS it was 4.81 µM. For the same molecule, the TGI in the assay on 786-0 renal is above 100 µM; with BT-549 breast it was above 100 µM; with IGROV1 ovarian, above 100 µM; in the assay on NCI-H522 lung it was above 100 µM; in the assay on NCI-H460 lung, above 100 µM; with SK-MEL-28 melanoma, 51.6 µM. Further, the figures for the TGI with LOX IMVI melanoma, in the assay on ACHN renal and in the assay with SF-268 CNS were 38.4 µM, above 100 µM and 74.4 µM, respectively.

As to `Fc1ccc2c(c1)c(-c1nc(-c3c[nH]c4ncccc34)cs1)cn2CCCN1CCCCC1`, the GI50 in the assay on 786-0 renal is 1.65 µM; in the assay on BT-549 breast it was 3.72 µM; with NCI-H23 lung, 1.64 µM; with SK-MEL-28 melanoma it was 1.75 µM; in the assay on SF-268 CNS, 1.64 µM. The TGI in the assay on 786-0 renal amounted to 3.1 µM; in the assay with BT-549 breast, 14.5 µM; in the assay on NCI-H23 lung, 3.13 µM; in the assay on SK-MEL-28 melanoma, 3.26 µM; in the assay on SF-268 CNS, 3.42 µM.

As for `O=NNc1ccc(S(=O)(=O)c2ccccc2)cn1`, the TGI in the assay on 786-0 renal, in the assay on BT-549 breast, with IGROV1 ovarian, in the assay with NCI-H522 lung, with NCI-H460 lung and in the assay with NCI-H23 lung was above 100 µM in each case. Moreover, the TGI in the assay with SK-MEL-28 melanoma, in the assay with ACHN renal and in the assay on SF-268 CNS was above 100 µM in each case.
